In patent publication US20090264492A1, “PHARMACEUTICAL COMPOSITION FOR THE TREATMENT OF A FUNGAL SKIN DISORDER AND A METHOD FOR THE PREPARATION THEREOF” (Stichting Voor de Technische Wetenschappen, priority 2006, published 2009):

What was measured:
T. rubrum = experiment: PDT of T. rubrum on human stratum corneum (ex-vivo model), fungicidal effect; format: cell-based, Trichophyton rubrum; conditions: acidic pH versus pH 7.4
Procedure: A polycarbonate membrane filter, 25 mm in diameter and a pore size of 2 μm (Whatman, Breda, The Netherlands) was placed in the central part of a 3 cm culture dish (Greiner, Alphen aan den Rijn, The Netherlands) filled with 5 ml of Malt Extract Agar (MEA). A circular piece of human stratum corneum (SC) with a diameter of 1 cm was subsequently placed on the membrane filter and both were gently brushed with a paintbrush dipped in 70% ethanol. A microconidia suspension isolated from Trichphyton rubrum (CBS nr. 304.60 obtained from Centraal Bureau voor Schimmelcultures, Utrecht, The Netherlands, and prepared as described by Smijs G. M. T. et al (2004) in “Photodynamic treatment of the dermatophyte Trichophyton Rubrum and its microconidia with porphyrin sensitizers. PhotoChemistry and PhotoBiology, 80, 197 - 202”) was diluted to 1000 CFU/ml and 15 μl was inoculated on the circular sheet of human SC. The dish was placed in an incubator at 28° C. and at 17 hours after spore inoculation photodynamic treatment (PDT) was applied.
At 17 hours after spore inoculation, the membrane filter with SC containing spore inoculates was transported from the MEA dish to a 3 cm culture dish filled with 1035 μl incubation medium. The incubation medium contained 1 ml of distilled water with an adjusted pH (3.5, 4.5, 5.2, or 7.4) and 35 μl of a Sylsens B stock solution (Buchem, Apeldoorn, the Nederland) . To optimize the contact of the inoculates with the incubation medium, the membrane filter with the SC was turned upside down during the incubation period of 2 hours. The incubation was performed under continuous shaking conditions. Shortly before the illumination period the membrane filter containing the SC was turned back (surface SC now faces the lamp). In all cases, the illumination time was 1 hour using a red light irradiance of 30 mW/cm^2. This corresponds to a light dose of 108 J/cm^2. After the illumination the membrane filter with the SC were transported to a fresh MEA dish, placed in a 28° C. incubator and fungal growth was followed for several weeks. Dark controls were included, i.e. the same procedure was carried out except that the inoculated microconidia on human skin were treated with solvent and/or photosensitizer in the dark. In the light controls, the microconidia were treated with solvent (only) in the presence of light. The efficacy of the treatment was expressed as a relative frequency of complete inactivation (killing) of fungal growth detected at day 8 after spore inoculation. This was assessed microscopically with the use of a Zeiss Axiovert 25 (Germany). […] The treatment effect was followed for a period of several months. Every experiment contained 4 to 6 duplicates of all conditions and the experiments were repeated 3 times at least.
PDT of T. rubrum 17 hours after spore inoculation using the ex-vivo model, different concentrations of Sylsens B and a different pH (water medium). The numbers indicate the relative frequency of the fungicidal effect^1. Numbers between brackets give the number of tests performed.
The experiment with Sylsens B was repeated more extensively, for a longer period of time and with more samples. More specifically, the photodynamic efficacy of Sylsens B towards T. rubrum was tested at 17 (FIG. 2a), 48 (FIG. 2b) and 72 hours (FIG. 2c) after spore inoculation on human SC, at the following incubation pH values: Filled diamonds: pH 3.5, filled squares: pH 5.2 and filled triangles: pH 7.4.

[1] = test system: the fungus cultivated in suspension; experiment: binding of Sylsens B to the fungus cultivated in suspension / photodynamic effect with competing cations; format: cell-based, T. rubrum; conditions: Alcian Blue 160 μM versus Sylsens B 160 μM
Procedure: In the above experiments, deuteroporphyrin monomethylether (DP mme), an anionic porphyrin, was used as a control. […] The effect of calcium-ions was investigated by determining the photodynamic effect in the presence of 5 mM CaCl2 at pH 5.2. […] So, PDT may even be used to inactivate (kill) the growing fungus if measures are taken to prevent naturally present calcium from interfering with the treatment, in particular by using a chelating compound such as EDTA.

Compound | effect of acidic pH on photodynamic activity (T. rubrum) | competition for binding to the fungus [1]
deuteroporphyrin monomethylether [DP mme, reference compound] | failed to display the observed pH effect | 
C[n+]1ccc(-c2c3nc(c(-c4cc[n+](C)cc4)c4ccc([nH]4)c(-c4cc[n+](C)cc4)c4nc(c(-c5cc[n+](C)cc5)c5ccc2[nH]5)C=C4)C=C3)cc1.[Cl-].[Cl-].[Cl-].[Cl-] [meso-tetra(N-methyl-4-pyridyl)porphyrin tetrachloride, reference compound] | improved activity at acidic pH, albeit to a lesser extent than Sylsens B | 
Alcian Blue [reference compound] |  | competed with Sylsens B
